Literature values, collected in patent publication US5152997A, “Method and device for transdermally administering testosterone across nonscrotal skin at therapeutically effective levels” (Theratech, Inc., priority 1991, dated 1992).

Assays:
[1] = e.g., neck, back, chest, arms; for delivery of 5-10 mg/day through a limited area

Row | SMILES | degradation by the liver (administered orally) | permeability to testosterone of skin areas normally used for transdermal delivery [1] | systemic availability of testosterone (oral administration)
1 | C[C@]12CC[C@H]3[C@@H](CCC4=CC(=O)CC[C@@]43C)[C@@H]1CC[C@@H]2O [testosterone] | rapidly degraded by the liver | too low to permit delivery of the amounts of testosterone needed for therapy | –
2 | CCCCCCCCCCC(=O)O[C@H]1CC[C@H]2[C@@H]3CCC4=CC(=O)CC[C@]4(C)[C@H]3CC[C@]12C [testosterone undecanoate] | – | – | provides systemically available testosterone
